Where only a bound is given, the exact number is not on record here.

The molecule `CN(C)C1(c2ccccc2)CCC(C(O)CN2Cc3ccccc3C2)CC1` (stereo not drawn) had a melting point of 130 to 135 °C. The figure for `CCOC(=O)C=C(c1ccc(-c2ccccc2)cc1)C1(n2cncn2)CC1` is 98 to 100 °C; for `Cc1ccc(Cl)c(NS(=O)(=O)c2nc3nc(Cl)cc(Cl)n3n2)c1Cl` it is 269 to 271 °C; for `CN1CCC(=C2c3ccccc3CCc3ccc(C#N)cc32)CC1` it is 152 to 154 °C. `COc1ccc2[nH]c(-c3nc(C)no3)cc2c1` gave a melting point of 141 to 142 °C.

In the case of `CCNC(=O)NC(=O)Nc1ccccc1`, the melting point was in the range of 80 to 81.5 °C. In turn, `CC(=O)c1ccc(NS(C)(=O)=O)c(Br)c1` displayed a melting point of 124 to 126 °C.

Consider `CN(C)CCN(C)c1ccc(Nc2cc(-c3cc(F)cc(N4CCc5c(sc6c5CCCC6)C4=O)c3CO)cn(C)c2=O)nc1`, for which the melting point was in the range of 122 to 123 °C. The molecule `CS(=O)(=O)Nc1cc([C@@H](O)CNC2CCN(c3ccc(NC(=O)c4ccc5c(c4)OCO5)cc3)CC2)ccc1O` showed a melting point of 104 to 113 °C. The figure for `Cc1c(-c2ccc(OC(C)C)cc2)n(Cc2ccc(OCCN3CCCCCC3)cc2)c2ccc(O)cc12` is 120 to 125 °C.

For the molecule `O=C(O)c1ccc(OCC2CN(C(=O)c3ccccc3)C(=O)O2)cc1` (stereo not drawn), the melting point lay within 219 to 221 °C. Take `COc1ccc2nc(-n3nc(CCCO)cc3-c3ccc(Cl)cc3)sc2c1`: the melting point lay in the range of 123 to 125 °C. In turn, `CSc1sc(C(=O)N(C)C2CCCCC2)c2c1-c1oncc1C(C)(C)C2` had a melting point of 150 to 153 °C. The figure for `COc1cc2ncnc(N3CCN(C(=O)Nc4ccc(C(=O)C(F)(F)F)cc4)CC3)c2cc1OC` is 144 to 146 °C; for `Cc1sc(C(=O)O)c2c1-c1c(cnn1Cc1ccccc1)CC2` it is 231 to 232 °C. In the case of `CCOC(=O)CCCCC(=O)Oc1cccc(-c2cn3c(n2)sc2ccccc23)c1`, the melting point lay in the range of 90 to 92 °C. Molecule `CCOC(=O)Cc1nc(-c2ccc(Cl)cc2)oc1CC(C)C` registered a melting point of 56 to 57 °C. The figure for `CC(O)(C#Cc1ccc(C(=O)c2ccccn2)cc1)C(F)(F)F` (stereo not drawn) is 116 to 118 °C. With `O=C(Nc1ccc(-c2nnn[nH]2)cc1)Oc1ccc([N+](=O)[O-])cc1`, the melting point was greater than 260 °C. Next, `CN(C)CCCc1cc(C(=O)Nc2ccc(-c3ccc(C(=O)O)cc3)cc2)ccc1O`: 278 to 280 °C; `Cc1nc(N2CCN(CC3CCCC3)C2=O)sc1C(=O)NCc1cccnc1`: 142 to 143 °C; `O=C(Nc1ccc2cc(CN3CCCC3)ccc2c1)N1CCC(c2ccccc2)CC1`: 193 to 195 °C. The figure for `CCOC(=O)C1(C)CN(Cc2ccccc2)C(=O)C(=C2SC=CS2)C1=O` (stereo not drawn) is 111 to 113 °C; for `COC(=O)CCC(=O)c1ccccc1NC(=O)CCl` it is 102 °C; for `CC/C=C/CNc1cccc(-c2ccnc3c(C(=O)c4cccs4)cnn23)c1` it is 72 to 75 °C. For `CCCCOc1ccccc1-c1ccc(C(N)=O)c(=O)[nH]1`, the melting point was in the range of 190 to 191 °C.

In the case of `CC(C)(C)OC(=O)NCc1cccc(C(=O)O)n1`, the melting point is 238 to 240 °C.

For `Cc1nnc(-c2ccc3occ(-c4ccc(C(N)=O)cc4)c3c2)o1`, the melting point fell in the range of 250 to 251 °C. As to `COC(=O)C1=C(N)NC(C)=C([N+](=O)[O-])C1c1ccccc1OCCCCCN1CCN(c2ccccc2OC)CC1` (stereo not drawn), the melting point is 167 °C. Consider `Oc1ccc2cnccc2c1`, for which the melting point was in the range of 218 to 220 °C.

In turn, `CCOC(=O)/C=C/c1ccc2c(c1)nc(N)c1nc(CC)n(CC3CCOCC3)c12` came in with a melting point of 209 to 210 °C. Next, `CCOC(=O)C1=C(C)NC(N)=C(C(=O)OCC)C1c1cccc2ccccc12` (stereo not drawn): 174 °C; `Cc1cc2c(cc1C)-n1nnnc1C=C(c1ccc(-n3c(C)nc4cnccc43)cc1)N2`: 315 °C; `Cc1ccccc1Cc1n[nH]c2c1c(=O)n(-c1cccc(C(F)(F)F)c1)c1ncccc21`: 249 to 252 °C. In turn, `Nc1cccc(C#CCCN2CCC(O)(c3ccc(Cl)cc3)CC2)c1` gave a melting point of 139 to 140 °C. Consider `CN(C)C1(c2ccccc2)CCC(CC(=O)N2CCC(c3c[nH]c4ccccc34)C2)CC1` (stereo not drawn), for which the melting point was in the range of 98 to 100 °C.

Take `CCC1Cc2cc(N)ccc2C1=O` (stereo not drawn): the melting point was 106 to 108 °C. The figure for `O=C(O)c1ccc(N2C(=O)CCC2(CO)CO)cc1` is 195 to 197 °C; for `CCCCc1ncc(C(=O)OCC)c(NCc2ccc(-c3ccccc3-c3nnnn3C(c3ccccc3)(c3ccccc3)c3ccccc3)cc2)n1` it is 116 to 118 °C; for `O=C1CN2CCOC2(c2ccccc2F)c2cc(Cl)ccc2N1CCO` (stereo not drawn) it is 141 to 146 °C.

In turn, `COc1ncnc2c1C(c1cccc([N+](=O)[O-])c1)C(C(=O)OC(C)C)=C(C)N2` (stereo not drawn) returned a melting point of 212 to 213 °C. The figure for `O=C(O)C1CSC(C2CC3C=CC2C3)N1` (mixture of isomers) is 220 °C; for `Cn1nccc1CCS(=O)(=O)Cc1ccc(OCc2coc(C=Cc3ccc(C(F)(F)F)cc3)n2)cc1` it is 204 °C.

In turn, `COc1cc(O)ccc1N` registered a melting point of 168 to 170 °C. `NC(=O)NCc1ccc2c(c1)CN(C1CCC(=O)NC1=O)C2=O` (stereo not drawn) displayed a melting point of 224 to 226 °C. For the molecule `O=C(Nc1ccc(Oc2ccnc(-n3ccnc3)n2)c2ccccc12)c1cc(F)cc(N2CCCCC2)c1`, the melting point lay in the range of 175 to 176 °C. Next, `COCCCn1nnnc1-c1cc(-c2cccc(C)c2)c(O)cc1O`: 137 to 140 °C. Consider `COc1ccc(C=CCC#N)cc1`, for which the melting point lay within 75 to 76 °C. The figure for `Cc1cccc(C(N)=O)c1Nc1nc(Nc2ccc3c(c2)C(C)(C)CCC(=O)N3)ncc1Cl` is 220 to 222 °C; for `O=C(O)CCCc1cc2nc(Cl)ccc2n1S(=O)(=O)c1ccc(-c2ccncc2)cc1` it is 174 °C.

In turn, `CN(C)C(=O)N1CC(Sc2ccc(Cl)cc2)C1` returned a melting point of 96 to 97 °C. The figure for `O=c1[nH]c2cc(Cl)c(S(=O)CCN3CCC(Cc4ccc(F)cc4)CC3)cc2o1` (stereo not drawn) is 199 to 200 °C. The molecule `CC=C(C)c1ccc(-c2ccccc2F)cc1` registered a melting point of 83 to 85 °C. Next, `COc1cc2c(cc1OC)CC(=O)NC(=O)C2`: 235 °C. The figure for `CN(C)C1CCc2c(ccc(O)c2C(N)=O)C1` (stereo not drawn) is 65 to 66 °C.

In turn, `O=C(Nc1cccc2c1C(=O)c1c-2n[nH]c1-c1ccc(N2CCC(N3CCCCC3)CC2)cc1)NN1CCOCC1` registered a melting point of 233 °C.

Molecule `CCOC(=O)N1CCCOc2cc(N)ccc21` gave a melting point of 140 to 143 °C. The figure for `COc1ccc(-n2nc(Sc3ccc(C(C)C)cc3)c(C)c(C#N)c2=O)cc1` is 141 to 144 °C. Next, `COc1cc2c(Nc3ccc(Sc4nccn4C)c(Cl)c3)c(C#N)cnc2cc1/C=C/CCCN1CCN(C)CC1`: 215 to 221 °C; `CCOC(=O)C(C)Oc1ccc2c(-c3ccc(Cl)cc3)noc2c1` (stereo not drawn): 95 °C; `Nc1ccc(S(=O)(=O)c2cc(Cl)nc(Cl)c2)cc1`: 190 to 192 °C. The figure for `Cc1oc(-c2cccc([N+](=O)[O-])c2)nc1CCl` is 111 to 113 °C; for `COc1cc(C=Cc2ccccc2)cc(OC)c1OC` it is 108 °C; for `O=[N+]([O-])c1ccc2[nH]cc(Cn3ccnc3)c2c1` it is 230 to 232 °C. `C#CCOC(=O)C1=C(C)NC(C)=C(C(=O)OCC)C1c1ccccc1C(F)(F)F` (stereo not drawn) came in with a melting point of 130 °C. The figure for `OC(CC1CCNCC1)(c1ccc(F)cc1)c1ccc(F)cc1` is 169 to 171 °C; for `CCCCCCCNC(=O)N(C)c1cccc(-c2cc(F)c(CCC(=O)O)c(F)c2)c1` it is 86 °C. The molecule `COc1ccc2c(c1)c(Cc1cc(=O)n(-c3cccc(F)c3)[nH]1)c(C)n2C(=O)c1ccc(Cl)cc1` registered a melting point of 162 to 164 °C.

As for `CCOCc1nc2c(N)nc3cc(OCc4nccn4C)ccc3c2n1CC(C)(C)O`, the melting point lay within 200 to 202 °C. The figure for `O=C(O)c1cc2c(s1)C1CCC2C1` (stereo not drawn) is 183 to 184 °C. In turn, `O=C(O)C(=O)CC(=O)c1cn(CCCCc2ccccc2)c2ccccc2c1=O` yielded a melting point of 136 to 138 °C.

For `COC(=O)c1c(C(=O)O)cc2ccc3c(c2c1-c1ccc2c(c1)OCO2)OCO3`, the melting point lay within 273 to 275 °C. With `N#Cc1cnn2c(C(F)(F)F)cc(-c3ccc(Cl)c(Cl)c3)nc12`, the melting point is 206 °C.

On to `CCOC(=O)Cc1cn(Cc2ccccc2)nc1O`, for which the melting point was 156 to 157 °C. As for `Oc1ccc(F)nc1I`, the melting point fell in the range of 96 to 98 °C. The figure for `CCS(=O)(=O)c1ccc(C(CC2CCCC2)C(=O)O)cc1` (stereo not drawn) is 137 to 138 °C. Next, `Cc1c(C(=O)CBr)ncn1C`: 276 to 277 °C; `O=C(Nc1nc(C(Cl)(Cl)Cl)ns1)c1ccccc1Cl`: 142 °C; `CCCC[C@H](NC(=O)[C@H](CCC(=O)OC(C)(C)C)NC(=O)OCc1ccccc1)C(=O)CSCc1ccco1`: 78 to 79 °C.

For `COc1ccc2c(c1)sc1nc(Nc3ccccc3)nc(=N)n12`, the melting point was in the range of 225 to 226 °C. The figure for `Cn1c(C=O)cc2ccccc21` is 83 °C. The figure for `CC(C)(C)N1C(=O)CN(c2ccccc2)C1=O` is 116 °C; for `O=c1ccc(S(=O)(=O)c2cc3cc(Cl)ccc3o2)n[nH]1` it is 246 to 247 °C; for `O=C(C1CCCC1)N1c2ccccc2CCC1CN1CCN(c2cccc3[nH]ccc23)CC1` (stereo not drawn) it is 150 to 153 °C. The figure for `Oc1ccc(-c2ncc3ncc(-c4ccsc4)cc3n2)cc1` is 248 to 250 °C; for `COc1ccc(-c2cccc(C(=O)NCCO)c2)c2cc(Cc3cccc(C(F)(F)F)c3)oc12` it is 111 to 112 °C; for `COc1cccc(OC)c1-c1ccc(C[C@H](NC(=O)c2c(Cl)cc(F)cc2Cl)C(=O)O)cc1` it is 206 to 207 °C. In turn, `CCC(Cl)C(=O)NC(C)=O` (stereo not drawn) displayed a melting point of 51 to 53 °C.

(Values after a melting point compilation (Tetko et al.; mined from patent text by program, amines drawn as free bases though some values may be those of a salt).)
